Test results published in US10729740B2, “Lytic-peptide-Her2/neu (Human Epidermal growth factor Receptor 2) ligand conjugates and methods of use” (Esperance Pharmaceuticals, Inc., priority 2010, dated 2020).
Ends that are not written are not given here.

How the values were obtained:
[1] = system: Her2 receptor positive SKOV-3 cancer cells; assay: In vitro cytotoxicity, MTT assay, 48 h, SKOV-3
Procedure: (§1) 68) to the antibody at the C-terminus by NRVRRS (SEQ. ID NO. 57) linker). Cytotoxicity was compared to a naked antibody (antibody without a lytic peptide) in Her-2 receptor positive cells (SKBR-3 and SKOV-3, human breast and ovarian cancer cells, respectively) and Her-2 receptor negative breast cancer cells (MDA-MB-231).
(§2) Cells were prepared in 96 well plates using 2,000 cells/well and were allowed to attach for 48 hours. […] All data were processed and analyzed using Graph Pad Prizm 4™ software (Graph Pad Prizm, Inc).

[2] = system: Her2 receptor negative MDA-MB-231 cancer cells; assay: In vitro cytotoxicity, MTT assay, 48 h, MDA-MB-231
Procedure: as §1, §2

[3] = system: Her2 receptor positive SKBR-3 cancer cells; assay: In vitro cytotoxicity, MTT assay, 48 h, SKBR-3
Procedure: as §1, §2

KFAKFAKKFAKFAKKFAK [Phor-18, KFAKFAK KFAKFAK KFAK]
very minimal non-specific cytotoxicity: cytotoxicity to SKOV-3 cells (in words) [1] | cytotoxicity to MDA-MB-231 cells (in words) [2] | cytotoxicity to SKBR-3 cells (in words) [3]
